# From patent publication US10828301B2, “2,4-pyrimidinediamine compounds and their uses” (Rigel Pharmaceuticals, Inc, priority 2002, dated 2020)
# Where two headings read alike, the source gives them in different places.
# Assays:
# Assay type in all cases: cell-based
# [1] = test system: bone marrow derived mast cells (BMMC); assay: BMMC high cell density IgE activation: degranulation (hexosiminidase, histamine), leukotriene (LTC4) and cytokine (TNFalpha, IL-6) assays; settings: Mus musculus, anti-IgE activation
# Protocol: After sensitizing, cells are counted, pelleted (1000 rpm, 5-10 minutes), and resuspended at 1-3×10^6 cells/ml in MT buffer. Add 100 ul of cell suspension to each well and 100 ul of compound dilutions. The final vehicle concentration is 0.5% DMSO. Incubate at 37° C. (5% CO2) for 1 hour. After 1 hour of compound treatment, stimulate cells with 6× stimulus (60 ng/ml DNP-BSA). Mix wells with the cells and allow plates to incubate at 37° C. (5% CO2) for one hour. After 1 hour incubation, pellet cells (10 minutes, 1000 RPM) and collect 200 ul per well of the supernatant, being careful not to disturb pellet, and transfer to a clean tube or 96-well plate. Place the supernatant plate on ice. During the 4-5 hour step (see next) perform the hexosiminidase assay. Resuspend cell pellet in 240 ul WEI-conditioned media containing 0.5% DMSO and corresponding concentration of compound. Incubate BMMC cells for 4-5 hours at 37° C. (5% CO2). After incubation, pellet cells (1000 RPM, 10 minutes) and collect 225 ul per well and place in −80° C. until ready to perform ELISAS. ELISAS are performed on appropriately diluted samples (determined empirically for each donor cell population so that the sample measurement falls within the standard curve) following the supplier's instructions.
# Add 50 uL of BMMC cell supernatant (see above) to the hexoseaminidase substrate, place at 37° C. for 30 minutes and read the plate at 5, 10, 15, and 30 minutes on a spectrophotometer.
# [2] = test system: cultured human mast cells (CHMC); assay: CHMC low cell density IgE activation: tryptase and LTC4 assays; settings: Homo sapiens, Mast cell, Low Density CHMC, anti-IgE activation
# Summary of the method: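 Degranulation measured after 30 min anti-IgE challenge at 37° C of CHMC plated at 1000-1500 cells/well following 1 h preincubation. Readouts: LTC4 by ELISA on donor-specific diluted supernatants, and tryptase activity from a 30 min room-temperature substrate reaction.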
# [3] = test system: cultured human mast cells (CHMC); assay: CHMC low cell density ionomycin activation: tryptase assay; settings: Homo sapiens, Mast cell, Low Density CHMC, ionomycin activation, tryptase readout; read-out: CHMC Ionomycin Tryptase
# [4] = test system: cultured human mast cells (CHMC); assay: CHMC high cell density IgE activation: degranulation (hexos, tryptase, histamine), leukotriene (LTC4) and cytokine (TNFalpha, IL-13) assays; settings: anti-IgE activation
# Protocol: After sensitizing, cells are counted, pelleted (1000 rpm, 5-10 minutes), and resuspended at 1-2×10^6 cells/ml in MT buffer. Add 100 ul of cell suspension to each well and 100 ul of compound dilutions. The final vehicle concentration is 0.5% DMSO. Incubate at 37° C. (5% CO2) for 1 hour. After 1 hour of compound treatment, stimulate cells with 6× anti-IgE. Mix wells with the cells and allow plates to incubate at 37° C. (5% CO2) for one hour. After 1 hour incubation, pellet cells (10 minutes, 1000 RPM) and collect 200 ul per well of the supernatant, being careful not to disturb pellet. Place the supernatant plate on ice. During the 7-hour step (see next) perform tryptase assay on supernatant that had been diluted 1:500. Resuspend cell pellet in 240 ul of CM media containing 0.5% DMSO and corresponding concentration of compound. Incubate CHMC cells for 7 hours at 37° C. (5% CO2). After incubation, pellet cells (1000 RPM, 10 minutes) and collect 225 ul per well and place in −80° C. until ready to perform ELISAS. ELISAS are performed on appropriately diluted samples (determined empirically for each donor cell population so that the sample measurement falls within the standard curve) following the supplier's instructions.
# [5] = hexosaminidase release, read-out: BMMC anti-IgE hexos IC50
# [6] = hexosaminidase readout, read-out: CHMC anti-IgE Hexos.
# [7] = tryptase readout, read-out: CHMC anti-IgE Tryptase
# [8] = LTC4 readout, read-out: CHMC anti-IgE LTC4
# [9] = LTC4, read-out: CHMC high density LTC4
# [10] = TNF-alpha, read-out: CHMC high density TNF-alpha
# [11] = hexosaminidase release, read-out: CHMC high density hexos
# [12] = histamine release, read-out: CHMC high density histamine
# [13] = tryptase release, read-out: CHMC high density tryptase
# [14] = IL-13, read-out: CHMC high density IL-13
Compound,"IC50 [2, 7]",IC50 [3],"IC50 [4, 9]","IC50 [4, 10]","IC50 [4, 11]","IC50 [4, 12]","IC50 [4, 13]",further results
"O=C1COc2ccc(Nc3ncc(F)c(Nc4cccc(O)c4)n3)cc2N1 [Compound R909238, N2-(1,4-Benzoxazin-3-on-6-yl)-5-fluoro-N4-(3-hydroxyphenyl)-2,4-pyrimidinediamine]",,,,,,,,"IC50 ([1]; IL-6 release, read-out: BMMC anti-IgE IL-6 IC50): < 0.22 µM; IC50 ([1]; LTC4 release, read-out: BMMC anti-IgE LTC4 IC50): 0.521 µM; IC50 ([1]; TNF-alpha release, read-out: BMMC anti-IgE TNF-alpha IC50): 0.432 µM; IC50 [1, 5]: < 0.22 µM; IC50 ([1]; histamine release, read-out: BMMC anti-IgE histamine IC50): < 0.22 µM"
"CCOC(=O)c1cccc(Nc2ncc(F)c(Nc3cccc(C(=O)OCC)c3)n2)c1 [Compound R926228, N2,N4-Bis(3-ethoxycarbonylphenyl)-5-fluoro-2,4-pyrimidinediamine]",,,,,,,,"IC50 [2, 6]: > 10 µM; IC50 [1, 5]: > 10 µM"
"CCc1ccc(Nc2ncc(F)c(Nc3ccc(CC)cc3)n2)cc1 [Compound R926234, N2,N4-Bis(4-ethylphenyl)-5-fluoro-2,4-pyrimidinediamine]",,,,,,,,"IC50 [2, 6]: > 10 µM; IC50 [1, 5]: > 10 µM"
"CCc1ccc(Nc2ncc(F)c(Nc3ccc4c(c3)OCCO4)n2)cc1 [Compound R926237, N4-(3,4-Ethylenedioxyphenyl)-N2-(4-ethylphenyl)-5-fluoro-2,4-pyrimidinediamine]",1.21 µM,6.2 µM,,,,,,"IC50 [1, 5]: 1.9 µM"
"CNC(=O)c1cc2cc(Nc3ncc(F)c(Nc4ccc(C(C)(C)C)cc4)n3)ccc2o1 [Compound R926494, N4-(4-tert-Butylphenyl)-5-fluoro-N2-[2-(N-methylamino)carbonylbenzofuran-5-yl]-2,4-pyrimidinediamine]",0.313 µM,> 10 µM,0.326 µM,> 10 µM,0.64 µM,> 10 µM,> 2 µM,"IC50 [2, 8]: 0.078 µM"
"CNC(=O)c1cc2cc(Nc3ncc(F)c(Nc4ccc5c(c4)OCCO5)n3)ccc2o1 [Compound R926496, N4-(3,4-Ethylenedioxyphenyl)-5-fluoro-N2-[2-(N-methylamino)carbonylbenzofuran-5-yl]-2,4-pyrimidinediamine]",0.571 µM,> 10 µM,0.414 µM,0.622 µM,0.429 µM,0.809 µM,0.533 µM,
"COC(=O)c1cc2cc(Nc3ncc(F)c(Nc4cccc(O)c4)n3)ccc2o1 [Compound R926614, 5-Fluoro-N4-(3-hydroxyphenyl)-N2-(2-methoxycarbonylbenzofuran-5-yl)-2,4-pyrimidinediamine]",0.228 µM,> 10 µM,,> 10 µM,> 10 µM,,> 10 µM,"IC50 [4, 14]: 6.44 µM"
"OCc1cc2cc(Nc3ncc(F)c(Nc4cccc(O)c4)n3)ccc2[nH]1 [Compound R926700, 5-Fluoro-N4-(3-hydroxyphenyl)-N2-[2-(hydroxymethyl)-(1H)-indol-5-yl]-2,4-pyrimidinediamine]",,> 10 µM,< 1.1 µM,< 1.1 µM,< 1.1 µM,< 1.1 µM,< 1.1 µM,"IC50 [4, 14]: 2.05 µM"
"COC(=O)c1cc2cc(Nc3ncc(F)c(Nc4ccc(OC(C)C)cc4)n3)ccc2o1 [Compound R926704, 5-Fluoro-N2-(2-methoxycarbonylbenzofuran-5-yl)-N4-(4-isopropoxyphenyl)-2,4-pyrimidinediamine]",0.564 µM,> 10 µM,> 10 µM,> 10 µM,> 2 µM,> 10 µM,> 10 µM,
"CC(C)Oc1ccc(Nc2nc(Nc3ccc4oc(CO)cc4c3)ncc2F)cc1 [Compound R926705, 5-Fluoro-N2-[2-(hydroxymethyl)benzofuran-5-yl]-N4-[4-(isopropoxy)phenyl]-2,4-pyrimidinediamine]",0.263 µM,> 10 µM,0.494 µM,> 10 µM,1.01 µM,0.641 µM,1.26 µM,"IC50 [2, 8]: 0.533 µM"
"COC(=O)C1Cc2cc(Nc3ncc(F)c(Nc4ccc(OC(C)C)cc4)n3)ccc2O1 (stereo not shown) [Compound R926706, 5-Fluoro-N2-(2,3-dihydro-2-(methoxycarbonyl)benzofuran-5-yl)-N4-(4-isopropoxyphenyl)-2,4-pyrimidinediamine]",0.07 µM,2.41 µM,1.49 µM,> 10 µM,> 2 µM,> 10 µM,> 10 µM,"IC50 [2, 8]: 0.078 µM"
"Cc1cc(Nc2ncc(F)c(Nc3cc(C)c(O)c(Cl)c3)n2)cc(Cl)c1O [Compound R940216, N2,N4-Bis-(3-chloro-4-hydroxy-5-methylphenyl)-5-fluoro-2,4-pyrimidinediamine]",0.268 µM,7.3 µM,< 1.1 µM,3.19 µM,< 1.1 µM,1.18 µM,< 1.1 µM,"IC50 [4, 14]: 3.01 µM"
"Nc1cc(Cl)cc(Nc2ncc(F)c(Nc3cc(N)cc(Cl)c3)n2)c1 [Compound R950141, N2,N4-Bis(3-amino-5-chlorophenyl)-5-fluoro-2,4-pyrimidinediamine]",0.31 µM,> 10 µM,0.201 µM,1.06 µM,0.567 µM,0.627 µM,0.618 µM,"IC50 [4, 14]: 0.798 µM"
"NC(=O)C=Nc1cccc(Nc2ncc(F)c(Nc3cccc(O)c3)n2)c1 [Compound R950219, N2-(3-Aminocarbonylmethyleneaminophenyl)-5-fluoro-N4-(3-hydroxyphenyl)-2,4-pyrimidinediamine]",0.439 µM,> 10 µM,,,,,,
"CN(C)C(=O)C=Nc1cccc(Nc2ncc(F)c(Nc3cccc(O)c3)n2)c1 [Compound R950220, N2-[3-(N,N-Dimethylamino)carbonylmethyleneaminophenyl]-5-fluoro-N4-(3-hydroxyphenyl)-2,4-pyrimidinediamine]",0.489 µM,> 10 µM,,,,,,
"CNCCNC(=O)C=Nc1cccc(Nc2ncc(F)c(Nc3cccc(O)c3)n2)c1 [Compound R950225, 5-Fluoro-N4-(3-hydroxyphenyl)-N2-[3-[(N-methylamino)ethylamino]carbonylmethyleneaminophenyl]-2,4-pyrimidinediamine]",5.28 µM,> 10 µM,,,,,,
"Nc1cccc(Nc2ncc(F)c(Nc3cccc(O)c3)n2)c1 [Compound R950227, N2-(3-Aminophenyl)-5-fluoro-N4-(3-hydroxyphenyl)-2,4-pyrimidinediamine]",1.03 µM,> 10 µM,,,,,,
"CNC(=O)C=Nc1cccc(Nc2ncc(F)c(Nc3cccc(NCCO)c3)n2)c1 [Compound R950233, 5-Fluoro-N4-[3-(2-hydroxyethylamino)phenyl]-N2-[3-(N-methylamino)carbonylmethyleneaminophenyl]-2,4-pyrimidinediamine]",0.98 µM,> 10 µM,,,,,,
"Nc1cccc(Nc2nc(Nc3ccc4c(c3)N=CCO4)ncc2F)c1 [Compound R950254, N4-(3-Aminophenyl)-N2-(1,4-benzoxazin-6-yl)-5-fluoro-2,4-pyrimidinediamine]",0.496 µM,> 10 µM,,,,,,
